Like-named read-outs stand apart in the source and are kept apart here.
Legend:
[1] = tested on: HCV subgenomic replicon in Huh-7 cells; assay: Replicon Assay (Example B), luciferase readout EC50; assay type: cell-based; settings: luciferase readout, upper value of the cell pair, read-out: Assay B EC50
Procedure: The activities of compounds of the invention against HCV in a cellular environment were analysed using a replicon assay as described below.
(§1) Thus, Huh-7 cells persistently infected with an HCV-RNA construct (Bartenschlager, R. Hepatitis C replicons: potential role for drug development. Nature Rev. Drug Discov. 1, 911-916 (2002)) comprising: 5′ and 3′ non-translated regions (NTR); the non-structural genes NS3 to NS5b; as well as the G418 drug resistance gene, neomycin, (for selection of cells carrying HCV replicon RNA) fused to the firefly Luciferase reporter gene (pFKI3889Iuc-ubi-neo/NS3-3′/ET) were used to determine the cell based antiviral activity of compounds using luciferase activity as an indirect readout of HCV RNA load. In this assay […] huh-7 cells persistently infected with the HCV subgenomic replicon construct above were plated/well in a 96 well tissue culture plate. The cells were allowed to attach overnight in DMEM medium supplemented with 10% FBS 1% NEAA, and 250 μg/ml gentamicin. The following day the medium was replaced with 200 μl/well of fresh medium as described above lacking gentamicin. Semilog dilutions of compounds in medium were then added to triplicate wells (non-edge) of the cultured cells to give a 0.1% DMSO final concentration. Plates were then incubated at 37° C. in an atmosphere of 5% CO2 and air for 72 h. […] The plate was then read at 535 nm (excitation) and 590 nm (emission) on a SpectraMax Gemini reader (Molecular Devices) to determine the number of viable cells by measuring the conversion of rezasurin (Alamar blue) to resorufin in response to mitochondrial activity. In order to determine the antiviral effect of these compounds EC50 values were determined by measuring the luciferase activity of the cells. Alamar blue solution was removed from the wells and replaced with 100 μl/well of medium along with 100 μl/well of Bright-Glo reagent and incubated at room temperature for 5 minutes before transferring 100 μl/well to a white bottom 96 well plate to read in a luminometer as described in the Bright-Glo Luciferase Assay System protocol (promega).

full length NS3/4a = full length NS3/4a (Hepatitis C virus genotype 1b (isolate BK) (HCV), UniProt P26663); assay: NS3 Protease Assay (Example A), FRET-based; assay type: biochemical
Outline: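 Initial rates were taken from fluorescence progress curves over 30 min at room temperature, and IC50 was fitted across replicates. In-house full-length NS3/4a cleaved a FRET peptide (5-FAMsp/QXL520) from the NS4A/B site. Medium: 50 mM Tris pH8, 20 mM DTT, 1% CHAPS, 10% glycerol, 5% DMSO.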

[2] = Replicon Assay (Example B), Alamar Blue cytotoxicity CC50; assay type: cell-based; settings: human, lower value of the cell pair
Description: as §1

[3] = HCV NS3 protease assay, full length NS3/4a, read-out: Assay A IC50 (μM) average
[4] = read-out: IC50 against the protease activity of the full length NS3/4a
[5] = Hepatitis C virus, Huh-7, replicon assay
[6] = stated as IC50 less than 30 μM or at least 40% inhibition at a concentration of 100 μM, read-out: IC50 against the protease activity of the full length NS3/4a

Sequence of full length NS3/4a (P26663 1027-1657): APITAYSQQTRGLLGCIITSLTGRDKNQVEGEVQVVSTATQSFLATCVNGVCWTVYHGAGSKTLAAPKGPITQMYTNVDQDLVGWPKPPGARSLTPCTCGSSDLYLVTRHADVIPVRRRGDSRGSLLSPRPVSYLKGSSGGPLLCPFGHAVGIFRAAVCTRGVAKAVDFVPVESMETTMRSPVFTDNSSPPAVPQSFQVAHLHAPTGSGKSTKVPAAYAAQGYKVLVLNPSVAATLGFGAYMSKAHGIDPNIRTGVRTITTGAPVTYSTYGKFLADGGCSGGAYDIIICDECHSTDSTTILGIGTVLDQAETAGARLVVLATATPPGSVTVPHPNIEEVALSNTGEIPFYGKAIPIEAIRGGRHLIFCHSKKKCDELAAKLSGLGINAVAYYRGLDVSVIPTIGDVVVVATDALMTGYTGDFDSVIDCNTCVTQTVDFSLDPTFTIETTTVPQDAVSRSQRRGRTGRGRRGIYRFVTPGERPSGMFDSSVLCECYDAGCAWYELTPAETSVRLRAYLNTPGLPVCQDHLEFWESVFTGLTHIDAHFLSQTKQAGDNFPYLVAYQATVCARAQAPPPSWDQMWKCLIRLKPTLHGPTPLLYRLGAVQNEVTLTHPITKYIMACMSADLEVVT

CCC(NC1CCCC1C(N)=O)c1ccc(Cl)c(C(=O)c2ccc(N)nc2)c1F (racemic) [Example 125, 2-{[1-{3-[(6-aminopyridin-3-yl)carbonyl]-4-chloro-2-fluorophenyl}propyl]amino} cyclopentane-1-carboxamide]
EC50 ([1]; replicon assay): 79 nM

CCC(NC1CCCC1C(N)=O)c1ccc(Cl)c(C(=O)c2ccc(N)nc2)c1F (racemic) [Example 127, 2-{[1-{3-[(6-aminopyridin-3-yl)carbonyl]-4-chloro-2-fluorophenyl}propyl]amino} cyclopentane-1-carboxamide]
EC50 ([1]; replicon assay): > 10000 nM

CCC(NC1CCCC1C(N)=O)c1ccc(Cl)c(C(=O)c2ccc(N)nc2)c1F (racemic) [Example 161, 2-{[1-{3-[(6-aminopyridin-3-yl)carbonyl]-4-chloro-2-fluorophenyl}propyl]amino} cyclopentane-1-carboxamide]
EC50 ([1]; replicon assay): > 10000 nM

CCC(NC1CCCC1C(N)=O)c1ccc(Cl)c(C(=O)c2ccc(N)nc2)c1F (single isomer, unassigned) [Example 125, 2-{[1-{3-[(6-aminopyridin-3-yl)carbonyl]-4-chloro-2-fluorophenyl}propyl]amino} cyclopentane-1-carboxamide]
IC50 (full length NS3/4a; [3]): 0.29 µM
IC50 (full length NS3/4a; [4]): < 1 µM
CC50 at 72 h [2]: > 3000 nM

CC[C@@H](N)c1ccc(Cl)c(C(=O)c2ccccc2)c1F [Example 4, (1R)-1-(3-benzoyl-4-chloro-2-fluorophenyl)propan-1-amine]
IC50 (full length NS3/4a; [3]): 0.089 µM
IC50 (full length NS3/4a; [4]): < 1 µM
EC50 [1, 5]: > 10000 nM
CC50 at 72 h [2]: > 10000 nM

CC[C@@H](N)c1ccc(Cl)c(C(=O)c2ccc(C#N)cc2)c1F [Example 9, 4-({3-[(1R)-1-aminopropyl]-6-chloro-2-fluorophenyl}carbonyl)-benzonitrile]
IC50 (full length NS3/4a; [3]): 0.076 µM
IC50 (full length NS3/4a; [4]): < 1 µM
EC50 [1, 5]: > 3000 nM
CC50 at 72 h [2]: > 3000 nM

N[C@@H](c1ccc(Cl)c(C(=O)c2ccccc2)c1F)C1CC1 [Example 11, (R)-(3-benzoyl-4-chloro-2-fluorophenyl)-(cyclopropyl)-methanamine]
IC50 (full length NS3/4a; [3]): 0.13 µM
IC50 (full length NS3/4a; [4]): < 1 µM
EC50 [1, 5]: > 3000 nM
CC50 at 72 h [2]: > 3000 nM

CCOC(=O)c1cnn(-c2ccc(C(=O)c3c(Cl)ccc([C@H](N)CC)c3F)cn2)c1 [Example 41, ethyl 1-[5-({3-[(1R)-1-aminopropyl]-6-chloro-2-fluorophenyl}carbonyl)pyridin-2-yl]-1H-pyrazole-4-carboxylate]
IC50 (full length NS3/4a; [3]): 1.6 µM
IC50 (full length NS3/4a; [4]): 1 to 5 µM
EC50 [1, 5]: 9 nM

CC[C@@H](N)c1ccc(Cl)c(C(=O)c2ccc(N)c(C#N)c2)c1F [Example 72, 2-Amino-5-[3-((R)-1-amino-propyl)-6-chloro-2-fluoro-benzoyl]-benzonitrile]
EC50 [1, 5]: 32 nM

CC[C@@H](N)c1ccc(Cl)c(C(=O)c2ccc(N)c(Cl)c2)c1F [Example 74, (4-Amino-3-chloro-phenyl)-[3-((R)-1-amino-propyl)-6-chloro-2-fluoro-phenyl]-methanone]
EC50 [1, 5]: 32 nM

[2H]C([2H])([2H])C([2H])([2H])[C@@H](N[C@@H](C)CC(N)=O)c1ccc(Cl)c(C(=O)c2ccc(N)c(C)c2)c1F [Example 268, (3S)-3-{[(1R)-1-{3-[(4-amino-3-methylphenyl)carbonyl]-4-chloro-2-fluorophenyl}(2,2,3,3,3-deutero)propyl]amino}-butanamide]
IC50 (full length NS3/4a; [3]): 0.19 µM
IC50 (full length NS3/4a; [4]): < 1 µM
EC50 [1, 5]: 16 nM

C[C@@H](CC(=O)NCCN)NCc1ccc(Cl)c(C(=O)c2ccccc2)c1F [Example 282, (3S)—N-(2-aminoethyl)-3-{[(3-benzoyl-4-chloro-2-fluorophenyl)methyl]-amino}butanamide]
inhibition at 0.01 µM (full length NS3/4a; @ 0.01 uM): 65%
EC50 [1, 5]: 3200 nM

CC[C@@H](N[C@H]1CCOC1)c1ccc(Cl)c(C(=O)c2cccnc2)c1F [Example 293, (3S)-N-[(1R)-1-{4-chloro-2-fluoro-3-[(pyridin-3-yl)carbonyl]phenyl}propyl] oxolan-3-amine]
inhibition at 10 µM (full length NS3/4a): 11%

CC[C@H](NC(=O)C1CCCNC1)c1ccc(Cl)c(C(=O)c2cccnc2)c1F (stereo partly drawn) [Example 294, N-[(1S)-1-{4-chloro-2-fluoro-3-[(pyridin-3-yl)carbonyl]phenyl}propyl]piperidine-3-carboxamide]
IC50 (full length NS3/4a; [3]): 0.41 µM
IC50 (full length NS3/4a; [4]): < 1 µM

CC[C@H](NC(=O)C1CCNC1)c1ccc(Cl)c(C(=O)c2cccnc2)c1F (stereo partly drawn) [Example 295, N-[(1S)-1-{4-chloro-2-fluoro-3-[(pyridin-3-yl)carbonyl]phenyl}propyl] pyrrolidine-3-carboxamide]
inhibition at 3 µM (full length NS3/4a; @ 3 uM): 38%

CC[C@@H](NC1CC1)c1ccc(Cl)c(C(=O)c2cccnc2)c1F [Example 296, N-[(1R)-1-{4-chloro-2-fluoro-3-[(pyridin-3-yl)carbonyl]phenyl}-propyl]cyclopropanamine]
IC50 (full length NS3/4a; [3]): 13 µM
IC50 (full length NS3/4a; [6]): < 30 µM

CC[C@H](NC(=O)CCN)c1ccc(Cl)c(C(=O)c2cccnc2)c1F [Example 297, 3-amino-N-[(1S)-1-{4-chloro-2-fluoro-3-[(pyridin-3-yl)carbonyl]phenyl}propyl] propanamide]
IC50 (full length NS3/4a; [3]): 0.15 µM
IC50 (full length NS3/4a; [4]): < 1 µM

CC[C@H](NC(=O)C[C@@H](N)C(C)C)c1ccc(Cl)c(C(=O)c2cccnc2)c1F [Example 298, (3R)-3-amino-N-[(1S)-1-{4-chloro-2-fluoro-3-[(pyridin-3-yl)carbonyl]phenyl}propyl]-4-methylpentanamide]
IC50 (full length NS3/4a; [3]): 0.064 µM
IC50 (full length NS3/4a; [4]): < 1 µM

CC[C@@H](NCc1cn[nH]c1)c1ccc(Cl)c(C(=O)c2cccnc2)c1F [Example 299, [(1R)-1-{4-chloro-2-fluoro-3-[(pyridin-3-yl)carbonyl]phenyl}propyl] (1H-pyrazol-4-ylmethyl)amine]
inhibition at 10 µM (full length NS3/4a): 32%

CC[C@@H](N[C@H](C)c1cn[nH]c1)c1ccc(Cl)c(C(=O)c2cccnc2)c1F [Example 300, [(1R)-1-{4-chloro-2-fluoro-3-[(pyridin-3-yl)carbonyl]phenyl}propyl] [(1R)-1-(1H-pyrazol-4-yl)ethyl]amine]
inhibition at 30 µM (full length NS3/4a; @ 30 uM): 48%
IC50 (full length NS3/4a; [6]): < 30 µM

CC[C@@H](N[C@@H](C)c1cn[nH]c1)c1ccc(Cl)c(C(=O)c2cccnc2)c1F [Example 301, [(1R)-1-{4-chloro-2-fluoro-3-[(pyridin-3-yl)carbonyl]phenyl}propyl] [(1S)-1-(1H-pyrazol-4-yl)ethyl]amine]
inhibition at 10 µM (full length NS3/4a): 65%
IC50 (full length NS3/4a; [6]): < 30 µM

CC[C@H](NC(=N)N)c1ccc(Cl)c(C(=O)c2cccnc2)c1F [Example 302]
IC50 (full length NS3/4a; [3]): 1.3 µM
IC50 (full length NS3/4a; [4]): 1 to 5 µM

CC[C@H](NC(=O)CCN)c1ccc(Cl)c(C(=O)c2ccc(N)nc2)c1F [Example 303]
IC50 (full length NS3/4a; [3]): 0.065 µM
IC50 (full length NS3/4a; [4]): < 1 µM

CC[C@@H](N[C@H](C)c1cnc[nH]1)c1ccc(Cl)c(C(=O)c2cccnc2)c1F [Example 304, [(1R)-1-{4-chloro-2-fluoro-3-[(pyridin-3-yl)carbonyl]phenyl}propyl] [(1R)-1-(1H-imidazol-5-yl)ethyl]amine]
IC50 (full length NS3/4a; [3]): 4.7 µM
IC50 (full length NS3/4a; [4]): 1 to 5 µM

CC[C@@H](N[C@@H](C)c1cnc[nH]1)c1ccc(Cl)c(C(=O)c2cccnc2)c1F [Example 305, [(1R)-1-{4-chloro-2-fluoro-3-[(pyridin-3-yl)carbonyl]phenyl}propyl] [(1S)-1-(1H-imidazol-5-yl)ethyl]amine]
IC50 (full length NS3/4a; [3]): 1.1 µM
IC50 (full length NS3/4a; [4]): 1 to 5 µM

CC[C@@H](NCCn1cccn1)c1ccc(Cl)c(C(=O)c2cccnc2)c1F [Example 306, [(1R)-1-{4-chloro-2-fluoro-3-[(pyridin-3-yl)carbonyl]phenyl}propyl] [2-(1H-pyrazol-1-yl)ethyl] amine]
inhibition at 100 µM (full length NS3/4a; @ 100 uM): 59%
IC50 (full length NS3/4a; [6]): < 30 µM

CC[C@@H](NC)c1ccc(Cl)c(C(=O)c2ccc(N)nc2)c1F [Example 307, 5-({6-chloro-2-fluoro-3-[(1R)-1-(methylamino)propyl]-phenyl}carbonyl)pyridin-2-amine]
IC50 (full length NS3/4a; [3]): 0.34 µM
IC50 (full length NS3/4a; [4]): < 1 µM

(3S)-3-{[(1R)-1-{3-[(6- aminopyridazin-3- yl)carbonyl]-4-chloro-2- fluorophenyl}propyl]amino} butanamide [Example 232]
IC50 (full length NS3/4a; [3]): 0.99 µM
IC50 (full length NS3/4a; [4]): < 1 µM

Reference: patent US9145354B2, “Pharmaceutical compounds” (priority 2011, dated 2015)
